In data set [1] the test system is C57 black mice. Briefly: In vivo toxicity, repeated s.c. or i.p. injection. As to conditions: 0.21 mg/kg s.c. or i.p. every 3 days for 2 weeks.
Protocol: (§4) Toxicity tests in intact animals were performed with C57 black and with bulb-C mice.
(§5) Four groups, each comprising 9 mice, were used. Animals of group one received 100 μl s.c. injections of 150 μM FTS in salient solution containing 1% DMSO (0.21 mg drug/kg body weight). The drug was injected every 3 days for 2 weeks. Group two, which served as controls, received the solvent/saline solution for the same period of time.
The subject of data set [2] is SV-40 T-antigen transformed CHO cells. Briefly: Growth of T-antigen transformed cells. In kind it is cell-based. To be noted: 25 μM. The text has this: (§1) The cell lines employed were rat1, -EJ, which are rat1 cells stably expressing Val- 12 activated human Ha-ras gene (Land H. et al., Nature, 304, 596-602, (1983)); V-raf-3T3, which are 3T3 cells stably expressing the V-raf gene (Xu, N., et al., Proc. Natl. Acad. Sci., 90, 6741-6745); RB-22, which are 3T3 cells stably expressing the rat Erb-B2 gene (Peles, et al., EMBO J., 10, 2077-2086 (1991)) CO6O cells (SV40-CHO), which are CHE cells stably expressing the SV-40 T-antigen gene (Lavi, Proc. Natl. Acad. Sci., 78, 6144-6148 (1981)); human endometrial carcinoma cell line HEC1A, which are cells that express activated K-ras (Enomoto T., Cancer Res., 50, 6139-6145; mouse B16F10 melanoma cells, rat pheochromocytoma PC12 cells, […] cells CHE and COS cells.
(§2) HEC1A, V-raf-3T3 and SV40-CHE cells were grown in Dulbecco's modified Eagle medium (DMEM) containing 10% fetal calf serum (FCS), 4 mM L-glutamine, 10 μg/ml streptomycin and 10 U/ml penicillin. Rat1 and -EJ cells were grown in the same medium except that it was supplemented with 12.5 U/ml nyostatin. RB-22 cells were grown in modified DMEM (1 mM sodium pyruvate, 20 mM sodium bicarbonate)/10% FCS containing 4 mM L-glutamine, […] streptomycin, 10 U/ml penicillin. […]
(§3) The potent PPMTase inhibitor FTS was used to examine selectivity of the drugs towards ras-dependent growth-signaling pathways. […] Cells were counted on day 5 of the experiment.

Another data set concerns ras proteins. Briefly: Methylation of immunoprecipitated ras proteins in intact ras-transformed rat1 cells. It counts as cell-based, rat. To be noted: 100 μM, FIG. 4. The text has this: HEC1A, rail, ras-transformed rail and B16F10 melanoma cells were also used for metabolic labelling of endogenous proteins with 100-300 μCi/ml [methyl-^3H]methionine which was also indicative of PPMTase activity. Metabolic labelling procedures were as detailed elsewhere (Hakiai et al., supra. (1991); Lenner et al., supra. (1992)), and immunoprecipitation of ras with Y13-159 Ab were as detailed by Clarke et al. (Proc. Natl. Acad. Sci. USA, 85, 4643-4647 (1988)).
While the above Table II determines the PPMTase activity by assaying the methylation of a synthetic substrate, FIG. 3 determines this activity by methylation of various endogenous ras-like prenylated GTP-binding proteins present in intact HEC1A, ras-transformed rat1 and melanoma cells, with and without 100 μM of FTA or FTS. […] Use of [α-P^32]

Data set [3] deals with C57 black mice. To be noted: mouse, in vivo.
Protocol: as §4, §5
The subject of data set [4] is Erb-B2 transformed 3T3 cells (RB-22). Briefly: Growth of Erb-B2 transformed cells. It counts as cell-based. As to conditions: 25 μM.
Text: as §1, §2, §3

For the compound `CC(C)=CCC/C(C)=C/CC/C(C)=C/CSc1ccccc1C(=O)O` [FTS, (3,7,11-trimethyl-dodeca-2,6,10-trienyl)-2-thiobenzoic acid], in the data set on C57 black mice [1], the “deaths out of the 18 drug treated animals” value is recorded as “one”. In addition, the “effect on growth of T-antigen-transformed cells” value in data set [2] was “no effects”. The “Number of cells (% of control)” value in data set [2] (Y-antigen transformed CHO, day 5) is given as 99 ± 9 % of control; in data set [4] (Brb-B2 transformed 3T3, day 5), 36 % of control. Also, the “inhibition of methylation of ras proteins” value with ras proteins is listed as “inhibits”. The “toxicity to C57 mice” value in the data set on C57 black mice [3] is recorded as “not toxic”. The “effect on growth of Erb-B2-transformed cells” value in data set [4] is reported as “sufficient to inhibit growth”.

The record behind these values is USRE39682E1, “Farnesyl derivatives and pharmaceutical compositions containing them” (Ramot at Tel Aviv University Ltd., priority 1993, dated 2007).
